# Measured values as given in patent US20240165247A1, “NEW PEPTIDE CONJUGATES” (JIANGYIN USUN PHARMACEUTICAL CO., LTD., priority 2021, published 2024).
# System: dental ulcer of the patient
# Assay: Dental treatment: solution sprayed onto dental ulcer of a patient, pain relief
# Format: in vivo, human
# Details: 1 mg/mL solution in normal saline
# Procedure: A 1 mg/mL solution of the title compound of Example 1 was prepared in normal saline.
# The resultant solution was sprayed using a standard spray device onto the dental ulcer of the patient. Pain relief occurred within 1 minute. The duration of pain relief was about 3 hours.
substance,measurement,value
Ala-Lys-Pro-Ser-Tyr-Hyp-Thr-Tyr-Hyp-Lys-Procaine [Example 1],Duration of pain relief,about 3 hours
same,Time to occurrence of pain relief,≤ 1 min
